Data published in EP1206494B1, “COMPUTATIONAL DESIGN METHODS FOR MAKING MOLECULAR MIMETICS” (SYNT:EM S.A., priority 1999, dated 2001).
Where a SMILES comes first, the peptide text is derived from it. Bridges are numbered along the chain shown (N, C = ends). Mpa = O=C(O)CCS

Assays:
HIV-1-LAI strain [1] = test: Antiviral activity assay on PBMCs infected by HIV isolates (reverse transcriptase in day 7 supernatant); format: cell-based; settings: Human immunodeficiency virus 1, PBMC
Procedure: Mononucleated cells were isolated from peripheral blood of a healthy donor (and seronegative for HIV and hepatitis viruses) with a gradient of Ficoll-Hypaque. The PBMCs were activated by […] of phytohemaglutinine-P (PHA-P, Difco Laboratories, Detroit, USA) during three days, then cultured at 200,000 cells per well in a 96-well plate, in a culture medium A, complemented by 20 IU/ml of recombinant interleukin-2 (rHuIL-2, Roche Products, Mannheim, Germany). Medium A consists of: RPMI cell culture (RPMI 1640, Roche Products), 10% Fetal Calf Serum (FCS, Roche Products complement inactivated by heating at 56°C for 45mn, 2mM L-glutamine (Roche Products) and a solution of three antibiotics (penicillin, streptomycin and neomycin (PSN, LifeTechnologies, Grand Island, JSA). During culture, cells were maintained at +37°C, in a saturated humid atmosphere, under 5% CO2.
(§1) PBMCs were infected over 1 hour at 37°C with a 10 000 tissue culture infectious dose 50% (TCID50) of the lymphocytary tropism reference strain HIV-1-LAI. At the end of the incubation, cells were washed twice with medium A. The HIV-1 strain was exclusively amplified, in the Neurovirology Service, with Umbilical Blood Mononucleated Cells (UBMC) activated with PHA-P, and the TCID50 was calculated using the Kärber formula.
The mimetic and the scrambled peptide were dissolved in ultrapure sterile water. Five concentrations were tested (50 µM, 10 µM, 5 µM, 1 µM and 0.5 µM). Antibodies ST40 and 9E8 (provided by the CNRS UMR 9921, Montpellier) were tested at the following concentrations: 100 µg/ml, 10 µg/ml, 1 µg/ml, 100 ng/ml and 10 ng/ml.
(§2) The activities of these compounds were compared to the Q4120 reference antibody and to AZT. […] The anti-HIV activity of AZT was measured at the following concentrations: 10 µM, 1 µM, 100 nM, 10 nM and 1 nM. […]
(§3) All experiments were performed in triplicate. […] The viral replication was measured by dosing the inverse transcriptase activation in the supernatant of the 7th day culture, using a dosing kit Retrosys(r), supplied by Innovagen (Lund, Sweden).

human recombinant CD4 = target: T1, human recombinant CD4 (Homo sapiens, UniProt P01730); test: BIAcore surface plasmon resonance kinetic analysis: binding of soluble CD4 to immobilized mimetic
T1 construct: purchased RepliGen (USA)
Procedure: The human recombinant CD4 used for the kinetic analysis and the biological assays was obtained from RepliGen (USA).
The kinetic parameters, association rate constant (ka) and dissociation rate constant (kd), were determined by surface plasmon resonance (SPR) analysis using BIACORE 2000 (Biacore AB, Uppsala, Sweden). ka and kd were determined using BIAevaluation 3.0 software (BIAcore AB). The apparent equilibrium constant KD is the ratio kd/ka. All experiments were carried out at 25°C.
The free SH group of the lysine side chain extended by a 3-mercaptopropionic acid linker of the mimetic was used to chemically immobilize molecules on a B1 sensor chip (BIAcore AB) following a standard PDEA/EDC/NHS procedure from BIAcore.
The binding kinetic of CD4 to immobilized mimetic was determined by injecting CD4 (1-20 µg/ml, 16-330 nM) in HBS buffer (running buffer) at a flow rate of 30 µl/min.

HIV-1-LAI strain [2] = format: cell-based; settings: dose independent, non-linear behavior
Procedure: Mononucleated cells were isolated from peripheral blood of a healthy donor (and seronegative for HIV and hepatitis viruses) with a gradient of Ficoll-Hypaque. The PBMCs were activated by […] of phytohemaglutinine-P (PHA-P, Difco Laboratories, Detroit, USA) during three days, then cultured at 200,000 cells per well in a 96-well plate, in a culture medium A, complemented by 20 IU/ml of recombinant interleukin-2 (rHuIL-2, Roche Products, Mannheim, Germany). […]
as §1, with “formula. […]” for “formula.”
as §2, §3

Compound `Cc1cn([C@H]2C[C@H](N=[N+]=[N-])[C@@H](CO)O2)c(=O)[nH]c1=O` [AZT] has an inhibition at 0.001 µM (HIV-1-LAI strain [1]) of 66 ± 5%, an inhibition at 0.01 µM (HIV-1-LAI strain [1]) of 74 ± 13% and an inhibition at 0.1 µM (HIV-1-LAI strain [1]) of 100%.

In the case of `CC(=O)N[C@@H](C)C(=O)N[C@@H](CCCNC(=N)N)C(=O)N[C@@H](CCCNC(=N)N)C(=O)N1CCC[C@H]1C(=O)N[C@H]1CCCCNC(=O)[C@@H]2CCCN2C(=O)CNC(=O)[C@H](Cc2ccc(O)cc2)NC(=O)[C@H](C)NC(=O)[C@H](C(C)C)NC(=O)[C@H](Cc2c[nH]c3ccccc23)NC(=O)[C@@H]2CCCN2C(=O)CNC(=O)[C@H](Cc2c[nH]c3ccccc23)NC(=O)[C@H](C(C)C)NC(=O)[C@H](CC(N)=O)NC(=O)[C@@H]2CCCN2C(=O)[C@H](Cc2c[nH]cn2)NC(=O)[C@H](CC(N)=O)NC(=O)[C@H](CCCCNC(=O)CCS)NC(=O)[C@H](C(C)C)NC(=O)[C@H](Cc2ccc(O)cc2)NC(=O)[C@@H]2CCCN2C(=O)[C@H](C)NC(=O)[C@H](CCCNC(=N)N)NC(=O)[C@H](Cc2ccc(O)cc2)NC(=O)[C@H](Cc2ccccc2)NC1=O` [Mk3Tyr-long1SH] (Ac-ARRPKFYRAPYVK(Mpa)NHPNVWGPWVAYGP; lactam 5-C), the kon (human recombinant CD4; immobilized mimetic and soluble CD4, 25°C, read-out: ka) is reported as 82600 M⁻¹ s⁻¹ and the Kd (human recombinant CD4; ratio kd/ka, read-out: calculated KD) is reported as 3.2 nM.

In the case of `CC[C@H](C)[C@H](NC(C)=O)C(=O)N[C@@H](Cc1c[nH]c2ccccc12)C(=O)N[C@H](C(=O)N[C@H]1CCCCNC(=O)CNC(=O)[C@H](Cc2c[nH]c3ccccc23)NC(=O)[C@H](C(C)C)NC(=O)[C@@H]2CCCN2C(=O)[C@H](CCCNC(=N)N)NC(=O)[C@H](C)NC(=O)[C@H](CC(N)=O)NC(=O)[C@@H]2CCCN2C(=O)[C@H](C)NC(=O)[C@H](CCCNC(=N)N)NC(=O)[C@@H]2CCCN2C(=O)CNC(=O)[C@H](Cc2ccc(O)cc2)NC(=O)[C@H](Cc2ccccc2)NC(=O)[C@H](CS)NC(=O)[C@H](CCCNC(=N)N)NC(=O)[C@H](CC(N)=O)NC(=O)[C@H](Cc2ccc(O)cc2)NC(=O)[C@@H]2CCCN2C(=O)[C@H](C(C)C)NC(=O)[C@H](Cc2c[nH]cn2)NC(=O)[C@@H]2CCCN2C(=O)[C@H](C)NC1=O)C(C)C` [scrambled peptide] (Ac-IWVKAPHVPYNRCFYGPRAPNARPVWG; lactam 4-C), the “anti-retroviral activity (in words)” value (HIV-1-LAI strain [2]) is reported as “within the background noise”.
